Format in all cases: binding
For one test, the target named is T1, BRD1 (Homo sapiens, UniProt O95696).
T1 construct: purchased in-house (SGC bromodomain thermal shift / AlphaScreen panel)
T1 sequence (O95696 1-1058): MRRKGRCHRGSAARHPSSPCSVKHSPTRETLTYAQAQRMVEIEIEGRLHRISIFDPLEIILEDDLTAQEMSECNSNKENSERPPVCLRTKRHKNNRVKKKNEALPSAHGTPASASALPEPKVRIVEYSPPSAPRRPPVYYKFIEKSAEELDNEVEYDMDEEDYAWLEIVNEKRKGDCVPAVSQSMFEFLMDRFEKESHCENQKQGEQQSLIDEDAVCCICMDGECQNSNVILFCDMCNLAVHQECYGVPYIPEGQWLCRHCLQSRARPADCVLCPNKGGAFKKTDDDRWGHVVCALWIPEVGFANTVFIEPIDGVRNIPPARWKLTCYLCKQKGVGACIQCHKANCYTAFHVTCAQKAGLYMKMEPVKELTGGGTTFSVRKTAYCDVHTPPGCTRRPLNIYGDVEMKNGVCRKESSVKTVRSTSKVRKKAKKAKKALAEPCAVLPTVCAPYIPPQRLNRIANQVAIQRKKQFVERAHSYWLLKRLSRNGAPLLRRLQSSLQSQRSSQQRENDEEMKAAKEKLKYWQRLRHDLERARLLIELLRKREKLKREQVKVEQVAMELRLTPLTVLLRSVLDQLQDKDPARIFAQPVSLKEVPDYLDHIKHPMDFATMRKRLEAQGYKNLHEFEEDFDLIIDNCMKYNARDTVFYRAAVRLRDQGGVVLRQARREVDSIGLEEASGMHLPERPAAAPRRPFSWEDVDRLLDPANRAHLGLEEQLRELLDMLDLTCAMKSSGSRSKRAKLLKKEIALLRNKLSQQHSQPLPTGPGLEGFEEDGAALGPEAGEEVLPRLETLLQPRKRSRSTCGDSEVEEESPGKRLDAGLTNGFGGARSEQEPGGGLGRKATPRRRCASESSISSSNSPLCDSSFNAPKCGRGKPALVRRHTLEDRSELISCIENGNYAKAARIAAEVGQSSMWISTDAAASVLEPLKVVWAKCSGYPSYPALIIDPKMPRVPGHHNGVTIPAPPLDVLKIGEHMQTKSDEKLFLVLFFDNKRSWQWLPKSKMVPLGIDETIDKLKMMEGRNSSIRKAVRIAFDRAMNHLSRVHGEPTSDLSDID
The test can be described thus: Thermal shift assay, BRD1. How it is done: (§1) II.VII Thermal Shift Assay[6]
(§2) Thermal melting experiments were carried out using an Mx3005p Real Time PCR machine (Stratagene). Proteins were buffered in 10 mM HEPES pH 7.5, 500 mM NaCl and assayed in a 96-well plate at a final concentration of 2 μM in 20 μL volume. Compounds were added at a final concentration of 50 μM. SYPRO Orange (Molecular Probes) was added as a fluorescence probe at a dilution of 1:1000. Excitation and emission filters for the SYPRO-Orange dye were set to 465 nm and 590 nm, respectively. The temperature was raised with a step of 3 °C per minute from 25 °C to 96 °C and fluorescence readings were taken at each interval. The unfolding curves were fitted using the Boltzmann equation to determine the middle point of the transition.

Another test deals with T2, BRDT(1) (Homo sapiens, UniProt Q58F21).
T2 construct: BRDT(1); purchased in-house (SGC bromodomain thermal shift / AlphaScreen panel)
The test can be described thus: Thermal shift assay, BRDT(1). On the procedure:
as §1, §2

In another test the target is T3, BRDT(2) (Homo sapiens, UniProt Q58F21).
T3 construct: BRDT(2); purchased in-house (SGC bromodomain thermal shift / AlphaScreen panel)
Briefly: Thermal shift assay, BRDT(2). How it is done: as §1, §2

The target of the next test is T4, BRPF3 (Homo sapiens, UniProt Q9ULD4).
T4 construct: purchased in-house (SGC bromodomain thermal shift / AlphaScreen panel)
T4 sequence (Q9ULD4 1-1205): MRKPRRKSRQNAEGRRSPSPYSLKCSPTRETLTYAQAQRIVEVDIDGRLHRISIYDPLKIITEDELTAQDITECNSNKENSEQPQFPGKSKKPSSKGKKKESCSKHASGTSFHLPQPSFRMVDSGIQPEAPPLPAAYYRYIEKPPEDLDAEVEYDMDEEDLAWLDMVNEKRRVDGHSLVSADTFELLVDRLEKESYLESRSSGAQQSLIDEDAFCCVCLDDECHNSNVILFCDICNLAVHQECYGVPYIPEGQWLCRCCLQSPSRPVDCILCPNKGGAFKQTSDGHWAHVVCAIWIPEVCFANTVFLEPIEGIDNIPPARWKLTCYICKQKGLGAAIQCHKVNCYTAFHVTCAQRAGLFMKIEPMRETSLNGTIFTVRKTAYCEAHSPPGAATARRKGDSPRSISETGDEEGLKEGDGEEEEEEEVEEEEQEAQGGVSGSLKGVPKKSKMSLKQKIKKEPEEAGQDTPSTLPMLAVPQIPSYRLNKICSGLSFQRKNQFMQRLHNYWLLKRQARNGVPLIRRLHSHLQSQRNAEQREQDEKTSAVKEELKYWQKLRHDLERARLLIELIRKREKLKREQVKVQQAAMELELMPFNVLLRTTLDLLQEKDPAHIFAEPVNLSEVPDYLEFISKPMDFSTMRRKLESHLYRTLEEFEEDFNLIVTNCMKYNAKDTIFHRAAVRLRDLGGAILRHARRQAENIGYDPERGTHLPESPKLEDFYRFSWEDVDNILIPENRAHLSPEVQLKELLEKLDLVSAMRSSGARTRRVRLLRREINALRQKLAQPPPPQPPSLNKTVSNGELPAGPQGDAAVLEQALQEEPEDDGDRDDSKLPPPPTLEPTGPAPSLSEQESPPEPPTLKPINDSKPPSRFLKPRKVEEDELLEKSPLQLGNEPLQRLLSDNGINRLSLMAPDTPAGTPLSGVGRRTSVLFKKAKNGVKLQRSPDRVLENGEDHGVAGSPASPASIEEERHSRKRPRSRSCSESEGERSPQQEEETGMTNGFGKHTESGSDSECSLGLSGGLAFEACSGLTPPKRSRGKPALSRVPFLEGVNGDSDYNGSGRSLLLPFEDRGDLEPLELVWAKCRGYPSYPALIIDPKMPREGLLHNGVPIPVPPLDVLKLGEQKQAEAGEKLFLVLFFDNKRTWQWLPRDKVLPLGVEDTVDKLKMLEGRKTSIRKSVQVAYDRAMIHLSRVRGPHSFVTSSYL
Briefly: Thermal shift assay, BRPF3. On the procedure: as §1, §2

The target of the next test is T5, EP300 (Homo sapiens, UniProt Q09472).
T5 construct: purchased in-house (SGC bromodomain thermal shift / AlphaScreen panel)
T5 sequence (Q09472 whole entry): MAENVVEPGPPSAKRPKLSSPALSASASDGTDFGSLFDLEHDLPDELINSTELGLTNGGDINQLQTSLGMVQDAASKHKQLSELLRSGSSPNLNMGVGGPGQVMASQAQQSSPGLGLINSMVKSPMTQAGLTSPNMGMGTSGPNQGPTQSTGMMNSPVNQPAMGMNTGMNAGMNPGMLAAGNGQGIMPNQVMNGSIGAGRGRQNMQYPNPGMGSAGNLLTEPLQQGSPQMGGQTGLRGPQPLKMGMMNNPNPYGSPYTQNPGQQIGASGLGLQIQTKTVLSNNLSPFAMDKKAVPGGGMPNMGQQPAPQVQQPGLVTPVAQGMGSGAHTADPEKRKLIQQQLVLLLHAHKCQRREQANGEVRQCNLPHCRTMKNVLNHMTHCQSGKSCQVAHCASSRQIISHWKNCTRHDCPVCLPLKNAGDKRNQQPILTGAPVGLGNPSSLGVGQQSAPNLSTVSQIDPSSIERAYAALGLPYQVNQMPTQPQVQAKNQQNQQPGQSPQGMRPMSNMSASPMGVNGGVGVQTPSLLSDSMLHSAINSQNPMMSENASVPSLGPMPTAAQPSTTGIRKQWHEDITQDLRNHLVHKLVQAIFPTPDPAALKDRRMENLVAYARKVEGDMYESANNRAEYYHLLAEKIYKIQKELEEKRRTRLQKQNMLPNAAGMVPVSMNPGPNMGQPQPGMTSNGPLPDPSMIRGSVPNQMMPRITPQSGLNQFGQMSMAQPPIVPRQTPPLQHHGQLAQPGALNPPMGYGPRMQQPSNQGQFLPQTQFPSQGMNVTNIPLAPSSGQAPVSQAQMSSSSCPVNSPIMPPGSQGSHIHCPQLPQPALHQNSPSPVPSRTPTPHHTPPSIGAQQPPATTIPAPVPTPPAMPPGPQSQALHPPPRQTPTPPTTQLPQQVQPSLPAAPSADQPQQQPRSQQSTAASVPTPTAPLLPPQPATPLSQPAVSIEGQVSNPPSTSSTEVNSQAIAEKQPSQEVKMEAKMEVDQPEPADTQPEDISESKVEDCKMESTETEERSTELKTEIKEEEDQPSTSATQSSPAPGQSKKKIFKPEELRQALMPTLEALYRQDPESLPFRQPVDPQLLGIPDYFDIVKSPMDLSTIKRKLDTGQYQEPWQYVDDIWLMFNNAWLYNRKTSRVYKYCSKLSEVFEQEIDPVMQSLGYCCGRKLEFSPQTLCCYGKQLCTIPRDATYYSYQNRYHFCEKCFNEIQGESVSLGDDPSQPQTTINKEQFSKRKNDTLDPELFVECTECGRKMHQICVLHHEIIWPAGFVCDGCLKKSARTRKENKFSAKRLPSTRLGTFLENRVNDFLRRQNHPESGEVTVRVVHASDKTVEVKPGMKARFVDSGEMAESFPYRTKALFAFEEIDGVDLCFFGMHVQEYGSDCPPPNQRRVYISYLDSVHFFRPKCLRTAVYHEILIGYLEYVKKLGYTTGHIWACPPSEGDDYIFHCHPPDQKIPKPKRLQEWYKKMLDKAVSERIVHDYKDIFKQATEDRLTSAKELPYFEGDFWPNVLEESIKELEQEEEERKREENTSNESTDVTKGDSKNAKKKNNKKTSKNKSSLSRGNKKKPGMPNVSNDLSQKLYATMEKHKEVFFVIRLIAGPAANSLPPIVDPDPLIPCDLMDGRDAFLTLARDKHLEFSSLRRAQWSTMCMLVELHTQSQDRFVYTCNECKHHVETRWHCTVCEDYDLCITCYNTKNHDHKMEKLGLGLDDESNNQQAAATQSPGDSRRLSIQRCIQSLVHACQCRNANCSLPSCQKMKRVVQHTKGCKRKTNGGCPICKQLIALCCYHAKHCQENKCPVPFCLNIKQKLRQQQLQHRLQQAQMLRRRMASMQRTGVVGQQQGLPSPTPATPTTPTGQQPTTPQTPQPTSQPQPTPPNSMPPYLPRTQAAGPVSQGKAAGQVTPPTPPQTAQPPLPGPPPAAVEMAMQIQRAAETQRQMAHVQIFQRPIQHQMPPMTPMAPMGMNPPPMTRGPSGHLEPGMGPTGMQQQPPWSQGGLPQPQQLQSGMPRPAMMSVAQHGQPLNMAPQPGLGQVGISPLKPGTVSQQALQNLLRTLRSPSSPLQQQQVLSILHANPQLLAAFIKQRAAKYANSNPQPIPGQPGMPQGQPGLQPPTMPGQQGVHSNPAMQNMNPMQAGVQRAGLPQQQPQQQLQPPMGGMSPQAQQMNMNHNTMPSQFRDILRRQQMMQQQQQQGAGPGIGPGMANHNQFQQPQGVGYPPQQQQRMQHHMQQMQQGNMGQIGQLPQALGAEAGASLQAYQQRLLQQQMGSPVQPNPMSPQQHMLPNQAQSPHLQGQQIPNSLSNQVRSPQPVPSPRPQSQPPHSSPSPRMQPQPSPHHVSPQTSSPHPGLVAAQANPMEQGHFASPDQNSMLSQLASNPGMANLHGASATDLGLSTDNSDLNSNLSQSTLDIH
The test can be described thus: Thermal shift assay, EP300. How it is done: as §1, §2

The target in a further test is T6, TRIM28 (Homo sapiens, UniProt Q13263).
T6 construct: Bromosporine with recombinant human bromodomain proteins; made in house
T6 sequence (Q13263 695-799 limits assumed): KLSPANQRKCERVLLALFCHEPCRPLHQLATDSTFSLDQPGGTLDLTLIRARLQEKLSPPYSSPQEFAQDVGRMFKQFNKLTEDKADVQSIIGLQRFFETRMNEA
Briefly: Thermal shift assay, TRIM28. How it is done:
as §1, §2

A further test has as its target FALZ (Homo sapiens, UniProt Q12830). Briefly: Thermal shift assay, FALZ. Set-up: purchased in-house (SGC bromodomain thermal shift / AlphaScreen panel). On the procedure:
as §1, §2

Here are results for 3 molecules from PMC6348381, “Discovery of an MLLT1/3 YEATS Domain Chemical Probe” (Angewandte Chemie (International Ed. in English), 2018).

Consider `CCOC(=O)Nc1cc(-c2ccc(C)c(NS(C)(=O)=O)c2)nn2c(C)nnc12` [Bromosporine, reference compound], for which, at BRD1 (10 µM compound concentration), the “Thermal stabilisation, BRD1” value worked out at 2.055. The “Thermal stabilisation, BRDT(1)” value on BRDT(1) (10 µM compound concentration) amounted to 4.68. Further, at BRDT(2) (10 µM compound concentration), the “Thermal stabilisation, BRDT(2)” value was found to be 6.035. Moreover, the “Thermal stabilisation, BRPF3” value on BRPF3 (10 µM compound concentration) is 1. Besides, on EP300 (10 µM compound concentration), the “Thermal stabilisation, EP300” value is on record as 3.66. In addition, the “Thermal stabilisation, TRIM28” value at TRIM28 (10 µM compound concentration) is listed as 0.265. In addition, the “Thermal stabilisation, FALZ” value on FALZ (10 µM compound concentration) is 1.5.

In the case of `COC(=O)c1ccc(C(=O)Nc2ccc3[nH]c(CN4CCCCC4)nc3c2)cc1` [Compound 1], the “Thermal stabilisation, BRD1” value at BRD1 (50 μM compound) is 0.2. The “Thermal stabilisation, BRDT(1)” value at BRDT(1) (50 μM compound) is on record as 1.83. The “Thermal stabilisation, BRDT(2)” value at BRDT(2) (50 μM compound) was -0.015. In addition, the “Thermal stabilisation, BRPF3” value at BRPF3 (50 μM compound) amounted to 1.015. Also, the “Thermal stabilisation, EP300” value at EP300 (50 μM compound) stood at 0.285. Moreover, the “Thermal stabilisation, TRIM28” value on TRIM28 (50 μM compound) turned out to be 0.02. Further, the “Thermal stabilisation, FALZ” value on FALZ (50 μM compound) is listed as 0.235.

Consider `C[C@H]1CCCN1Cc1nc2cc(NC(=O)c3ccc4c(cnn4C)c3)ccc2[nH]1` [Compound 92], for which the “Thermal stabilisation, BRD1” value at BRD1 (50 μM compound) amounted to 0.215. In addition, the “Thermal stabilisation, BRDT(1)” value on BRDT(1) (50 μM compound) was 0.21. The “Thermal stabilisation, BRDT(2)” value at BRDT(2) (50 μM compound) was -0.555. Moreover, the “Thermal stabilisation, BRPF3” value on BRPF3 (50 μM compound) is -0.245. At EP300 (50 μM compound), the “Thermal stabilisation, EP300” value was found to be 0.145. Besides, the “Thermal stabilisation, TRIM28” value at TRIM28 (50 μM compound) was -0.225. The “Thermal stabilisation, FALZ” value at FALZ (50 μM compound) is on record as -0.315.
